Tests used:
HT-29 cells = experiment: Reduction of colorectal tumor mass, HT-29 xenograft in nude mice; format: in vivo, Male nude mice; conditions: 5 mg/kg I.P. every 48 h
Method: Male nude mice ages 6-8 weeks (NU/J. Jackson Laboratories) received rear, hind leg flank subcutaneous injections of 5×10^6 HT-29 cells diluted 1:1 in matrigel-cell culture media. Mice were then monitored daily until tumor nodules reached 100-200 mm^3 upon which point they were randomized into treatment groups based on their weight and tumor size and treatment. Mice (10 mice per group) were injected I.P. every 48 h with 100 μL of either vehicle control or Compound 8 (5 mg/kg). Tumor nodules were then monitored every 48 h for up to 28 days with tumor volumes calculated using the equation V=(L*W2)/2 where L is length and W is width of a tumor. Differences in xenograft volumes between the different groups were analyzed by single factor analysis of variance of the log-transformed tumor volume data. Mice with tumors that exceed 1000 mm^3 were euthanized to avoid excessive suffering.

Kasumi-3 = experiment: Cancer cytotoxicity assay (Real-Time-Glo cell viability), Kasumi-3; format: cell-based; conditions: leukemia cell, 72 hr
Method: (§1) The cytotoxicity of Compounds 1, 3, 4, 6, 7, 8, 9, 10, 12 and 13 against cancer cell lines was determined. To determine the optimal plating density for cell viability assays, for each cell line, cells were counted and diluted to final densities of 2.5, 5, 10 and 20 thousand per 100 μL of their respective growth media per well in 96 well plates. The Promega Real-Time-Glo cell viability kit was used to determine the optimal concentration for cell plating so that each cell line would be within the linear part of its growth curve after 72 hrs in culture. For the determination of test compound IC50s, different cancer cell lines were plated in 96 well plates in the pre-determined optimal density for each cell line. Test compounds were then added at different concentrations for the creation of six-point curve and cell density was determined using the Promega Real-Time-Glo cell viability kit after 24, 48, and 72 hrs in culture.

CLK1 = target: T1, CLK1 (Homo sapiens, UniProt P49759); experiment: Kinase inhibition assay (Eurofins DiscoverX KinaseProfiler / KdElect), CLK1; format: biochemical
T1 construct: purchased Eurofins DiscoverX (contract service)
T1 sequence (P49759 whole entry): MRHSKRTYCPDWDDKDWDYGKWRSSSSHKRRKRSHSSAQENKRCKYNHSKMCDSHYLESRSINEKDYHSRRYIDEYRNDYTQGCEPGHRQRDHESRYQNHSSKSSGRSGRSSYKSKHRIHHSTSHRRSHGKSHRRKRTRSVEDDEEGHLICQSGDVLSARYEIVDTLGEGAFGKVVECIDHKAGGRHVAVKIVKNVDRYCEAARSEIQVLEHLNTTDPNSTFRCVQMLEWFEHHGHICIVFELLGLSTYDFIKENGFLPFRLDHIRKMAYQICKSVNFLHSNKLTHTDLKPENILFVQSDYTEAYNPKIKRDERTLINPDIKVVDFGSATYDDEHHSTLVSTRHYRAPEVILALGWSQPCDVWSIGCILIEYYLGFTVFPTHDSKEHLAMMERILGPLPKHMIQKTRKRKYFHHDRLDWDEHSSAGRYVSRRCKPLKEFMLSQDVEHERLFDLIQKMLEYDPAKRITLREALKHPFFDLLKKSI
Method: (§2) The activity of Compounds 1, 3, 4, 6, 7, 8, 9, 10 and 13 in inhibiting CLK1, CLK4, PLK4, and FLT3 kinases was determined. Stock solutions of the compounds being evaluated were prepared. The IC50 values were determined by the Eurofins DiscoverX services using either the KinaseProfiler or the KdElect kinase activity detection assays.

OV-90 = experiment: Cancer cytotoxicity assay (Real-Time-Glo cell viability), OV-90; format: cell-based; conditions: Homo sapiens, ovarian cancer cell line, 72 hr
Method: as §1

HCT-116 = experiment: Cancer cytotoxicity assay (Real-Time-Glo cell viability), HCT-116; format: cell-based; conditions: Homo sapiens, colorectal cancer cell line, 72 hr
Method: as §1

SKOV-3 = experiment: Cancer cytotoxicity assay (Real-Time-Glo cell viability), SKOV-3; format: cell-based; conditions: Homo sapiens, SK-OV-3; ovarian cancer cell line, 72 hr
Method: as §1

A-498 = experiment: Cancer cytotoxicity assay (Real-Time-Glo cell viability), A-498; format: cell-based; conditions: Homo sapiens, A498; kidney cancer, 72 hr
Method: as §1

MV4-11 = experiment: Cancer cytotoxicity assay (Real-Time-Glo cell viability), MV4-11; format: cell-based; conditions: Homo sapiens, leukemia cell, 72 hr
Method: as §1

CLK4 = target: T2, CLK4 (Homo sapiens, UniProt Q9HAZ1); experiment: Kinase inhibition assay (Eurofins DiscoverX KinaseProfiler / KdElect), CLK4; format: biochemical
T2 construct: purchased Eurofins DiscoverX (contract service)
T2 sequence (Q9HAZ1 whole entry): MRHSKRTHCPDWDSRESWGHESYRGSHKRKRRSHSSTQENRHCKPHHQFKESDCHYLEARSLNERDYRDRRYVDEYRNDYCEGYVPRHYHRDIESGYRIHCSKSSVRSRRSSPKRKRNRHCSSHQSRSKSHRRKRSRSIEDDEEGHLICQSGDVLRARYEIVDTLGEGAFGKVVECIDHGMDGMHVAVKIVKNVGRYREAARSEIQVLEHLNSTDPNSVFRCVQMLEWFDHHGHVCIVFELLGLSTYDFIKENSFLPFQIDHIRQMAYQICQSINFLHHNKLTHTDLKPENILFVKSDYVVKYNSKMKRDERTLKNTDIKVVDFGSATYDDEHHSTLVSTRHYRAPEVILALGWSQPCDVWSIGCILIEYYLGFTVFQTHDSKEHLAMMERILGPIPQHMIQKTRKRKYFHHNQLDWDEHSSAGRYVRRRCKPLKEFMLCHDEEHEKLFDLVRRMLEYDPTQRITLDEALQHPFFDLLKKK
Method: as §2

PLK4 = target: T3, PLK4 (Homo sapiens, UniProt O00444); experiment: Kinase inhibition assay (Eurofins DiscoverX KinaseProfiler / KdElect), PLK4; format: biochemical
T3 construct: purchased Eurofins DiscoverX (contract service)
T3 sequence (O00444 1-970): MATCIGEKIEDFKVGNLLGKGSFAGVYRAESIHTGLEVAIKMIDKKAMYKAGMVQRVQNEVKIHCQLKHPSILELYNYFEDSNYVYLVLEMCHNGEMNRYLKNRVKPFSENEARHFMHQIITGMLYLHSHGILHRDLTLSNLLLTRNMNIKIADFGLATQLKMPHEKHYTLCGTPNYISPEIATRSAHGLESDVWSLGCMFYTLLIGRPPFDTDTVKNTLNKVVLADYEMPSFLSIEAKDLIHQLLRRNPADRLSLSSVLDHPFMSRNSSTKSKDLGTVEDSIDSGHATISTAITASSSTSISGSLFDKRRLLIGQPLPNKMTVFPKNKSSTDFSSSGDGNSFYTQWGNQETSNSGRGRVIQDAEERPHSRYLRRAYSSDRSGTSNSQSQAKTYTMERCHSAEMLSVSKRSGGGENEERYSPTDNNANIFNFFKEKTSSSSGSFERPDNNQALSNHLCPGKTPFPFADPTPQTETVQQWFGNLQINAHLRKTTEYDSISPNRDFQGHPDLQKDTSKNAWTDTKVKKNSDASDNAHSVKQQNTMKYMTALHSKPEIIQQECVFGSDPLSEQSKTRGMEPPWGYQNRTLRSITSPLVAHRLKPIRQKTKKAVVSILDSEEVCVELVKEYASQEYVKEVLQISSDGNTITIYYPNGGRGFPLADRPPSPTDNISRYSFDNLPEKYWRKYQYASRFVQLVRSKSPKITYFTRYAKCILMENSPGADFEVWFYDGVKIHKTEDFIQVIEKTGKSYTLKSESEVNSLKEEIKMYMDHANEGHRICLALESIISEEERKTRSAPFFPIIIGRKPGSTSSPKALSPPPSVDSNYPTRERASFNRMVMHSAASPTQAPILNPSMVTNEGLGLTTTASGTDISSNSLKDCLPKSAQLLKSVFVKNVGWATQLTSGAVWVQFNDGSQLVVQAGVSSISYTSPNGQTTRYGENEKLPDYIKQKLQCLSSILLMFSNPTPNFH
Method: as §2

FLT3 = target: T4, FLT3 (Homo sapiens, UniProt P36888); experiment: Kinase assay (Eurofins DiscoverX KinaseProfiler / KdElect), FLT3; format: binding; conditions: read-out: FLT3 (Kd50 nM)
T4 construct: purchased Eurofins DiscoverX (contract service)
T4 sequence (P36888 27-993): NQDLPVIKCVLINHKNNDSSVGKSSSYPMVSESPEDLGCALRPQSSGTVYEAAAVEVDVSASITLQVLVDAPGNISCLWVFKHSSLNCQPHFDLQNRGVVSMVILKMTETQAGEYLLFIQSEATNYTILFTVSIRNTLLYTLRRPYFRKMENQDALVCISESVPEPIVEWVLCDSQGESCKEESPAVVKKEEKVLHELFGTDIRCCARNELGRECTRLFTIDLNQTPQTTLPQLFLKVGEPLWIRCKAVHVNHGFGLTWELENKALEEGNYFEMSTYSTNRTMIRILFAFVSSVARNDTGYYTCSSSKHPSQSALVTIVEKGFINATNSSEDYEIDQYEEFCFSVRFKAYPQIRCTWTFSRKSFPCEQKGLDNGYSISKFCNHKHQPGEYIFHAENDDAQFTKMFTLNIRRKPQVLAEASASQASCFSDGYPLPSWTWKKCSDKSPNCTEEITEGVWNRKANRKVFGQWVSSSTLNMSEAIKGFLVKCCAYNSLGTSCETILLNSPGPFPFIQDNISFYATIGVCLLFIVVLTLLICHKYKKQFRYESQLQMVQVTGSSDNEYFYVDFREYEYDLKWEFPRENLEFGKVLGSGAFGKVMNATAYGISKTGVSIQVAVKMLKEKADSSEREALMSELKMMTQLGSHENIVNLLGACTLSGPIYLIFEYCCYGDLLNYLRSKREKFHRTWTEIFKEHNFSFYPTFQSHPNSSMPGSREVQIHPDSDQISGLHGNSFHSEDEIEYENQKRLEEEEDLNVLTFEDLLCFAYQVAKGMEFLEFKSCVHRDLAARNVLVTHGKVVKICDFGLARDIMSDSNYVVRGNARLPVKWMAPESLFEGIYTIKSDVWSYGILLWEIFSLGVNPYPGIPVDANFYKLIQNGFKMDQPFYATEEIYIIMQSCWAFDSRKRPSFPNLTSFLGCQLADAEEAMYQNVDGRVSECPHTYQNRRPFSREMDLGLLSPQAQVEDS
Method: Stock solutions of the compounds being evaluated were prepared. The IC50 values were determined by the Eurofins DiscoverX services using either the KinaseProfiler or the KdElect kinase activity detection assays.

HT-29 = experiment: Cancer cytotoxicity assay (Real-Time-Glo cell viability), HT-29; format: cell-based; conditions: Homo sapiens, colorectal cancer cell line, 72 hr
Method: as §1

Kasumi-1 = experiment: Cancer cytotoxicity assay (Real-Time-Glo cell viability), Kasumi-1; format: cell-based; conditions: Homo sapiens, leukemia cell, 72 hr
Method: as §1

786-O = experiment: Cancer cytotoxicity assay (Real-Time-Glo cell viability), 786-O; format: cell-based; conditions: Homo sapiens, 786-0; kidney cancer, 72 hr
Method: as §1

CCc1cc(Nc2nc(N3CCC(F)(F)CC3)nc3cc(OCCCN4CCCC4)c(OC)cc23)n[nH]1 [Compound 8, 2-(4,4-difluoropiperidin-1-yl)-N-(5-ethyl-1H-pyrazol-3-yl)-6-methoxy-7-(3-(pyrrolidin-1-yl)propoxy)quinazolin-4-amine]
tumor growth compared to vehicle control (FIG. 3A) (HT-29 cells; 16 day study): significantly slower tumor growth | tumors on day 16 compared to vehicle (HT-29 cells; day 16): significantly smaller tumors | increase of tumor (FIG. 3B, tumor mass) (HT-29 cells; vehicle 600%): 370% | IC50 (Kasumi-3): 1000 to 5000 nM | IC50 (CLK1): < 1000 nM | IC50 (OV-90): 1000 to 5000 nM | IC50 (HCT-116): 1000 to 5000 nM | IC50 (SKOV-3): 1000 to 5000 nM | IC50 (A-498): 1000 to 5000 nM | IC50 (MV4-11): < 1000 nM | IC50 (CLK4): < 1000 nM | IC50 (PLK4): < 1000 nM | Kd (FLT3): < 1 µM | IC50 (HT-29): 1000 to 5000 nM | IC50 (Kasumi-1): 1000 to 5000 nM | IC50 (786-O): 1000 to 5000 nM

— patent US20240199597A1, “SMALL MOLECULES FOR THE TREATMENT OF KINASE-RELATED DISEASES” (Athos Therapeutics, Inc., priority 2021, published 2024)
